In patent US20090298813A1, “USE OF NEUROPROTECTIVE COMPOUNDS IN OBTAINING MEDICAMENTS INTENDED FOR THE TREATMENT OF NEURODEGENERATING DISEASES” (LES LABORATOIRES SERVIER, priority 2007, published 2009):

Columns and labels:
[1] = system: mouse striatum; assay: Glial reaction in a 6-OHDA model of Parkinson's disease in the mouse; assay type: in vivo; conditions: single i.p. injection of 20 mg/kg 10 minutes after 6-OHDA; assessed at 7 days; relative to control group (6-OHDA and solvent)
Protocol: Unilateral injection of 6-OHDA into the mouse striatum using a micro-syringe (0.5 μl of a solution containing 8 μg/μl) causes, from the 3rd day, degeneration of the TH-positive neurons of the striatum, which is accompanied, from the 7th day, by neuronal loss also in the substantia nigra, in accordance with that which is observed. in Parkinson's disease in humans.
The compounds of the invention are administered by the intraperitoneal route in a single injection of 20 mg/kg 10 minutes after the intracerebral injection of 6-OHDA. One group of mice is sacrificed at 3 days, the other at 7 days.

[2] = system: glial cells; assay: Protection from apoptosis caused in vitro in cultures of glial cells (OGD followed by reperfusion); assay type: cell-based, Sprague Dawley rats; conditions: 10 μM throughout OGD (3 h) and reperfusion (18 h); relative to control cultures subjected to OGD and reperfusion
Protocol: A study was carried out to determine if the compounds of the invention protect cultures of glial cells from the apoptosis brought about by oxygen and glucose deprivation (OGD) followed by reperfusion.
Glial cells are isolated from the brains of newborn Sprague Dawley rats and cultured. They are subjected to OGD for 3 hours by being placed in a glucose-free medium under anaerobic conditions in an incubator (5% CO2, 95% N2).
Reperfusion is carried out by returning the cultures for 18 hours to the normal medium [Dulbecco's modified Eagle […] (DMEM)], to which 10% fetal calf serum, 2 mM glutamine and 50 μg/ml of gentamicin have been added.
At the end of the OGD period, the adenosine triphosphate (ATP) content of the cultures is measured in order to assess the degree of ischaemia, using the BIOLUMINESCENT kit (luciferase luminescence).
The degree of apoptosis is quantified by counting the astrocyte nuclei labelled with the DNA-specific HOECHST 33258 fluorescent dye.
The compounds of the invention are added to the medium at a concentration of 10 μM throughout the OGD and reperfusion period.
The results are expressed as the percentage reduction in cell death relative to control cultures subjected to ischaemia by means of OGD and reperfusion.

[3] = system: dopaminergic neurons of primary rat mesencephalic cultures; assay: Neuroprotective effects and stimulation of the catecholaminergic phenotype in vitro (spontaneous death of dopaminergic neurons); assay type: cell-based
Protocol: The study is carried out in an in vitro model of primary rat mesencephalic cultures, wherein death of the dopaminergic neurons develops spontaneously and selectively when the cells mature. The culture conditions have been defined in detail in various publications (Douhou et al., J. of Neurochemistry, (2001), 78, 163-174). The culture media are changed daily and, under these conditions, the dopaminergic neurons, but not the other neurons such as GABA-ergic neurons, degenerate spontaneously. Natural trophic factors of the body such as GDNF (glial cell derived neurotrophic factor) have shown a protective effect on the dopaminergic neurons in this model.
The effects of Examples 1 and 12 were tested at 3 concentrations. The effect is analysed by measuring the rate of tritiated dopamine uptake and the number of surviving neurons by labelling the tyrosine hydroxylase with a fluorescent antibody.

[4] = system: newborn mice; assay: Protection from neurodegeneration caused by ibotenate in newborn mice; assay type: in vivo, mouse; conditions: 20 mg/kg i.p.; for Reduction in the size of lesions relative to the controls, cortex / Reduction in the size of lesions relative to the controls, white matter: simultaneous injection at 0 h
Protocol: Ibotenate, an agonist of N-methyl-D-aspartate (NMDA) receptors, when administered by the intracerebral route to the newborn mouse, brings about lesions of excitotoxic origin in the neocortex and the underlying white matter.
The ibotenate injection is performed in newborn mice aged 5 days (P5). The compounds of the invention are administered by the i.p. route at a dose of 20 mg/kg [either simultaneously] (P5), [or 8, 24 or 48 hours after induction of the lesions]. […] Cell markers were applied to the brain slices of animals sacrificed at various times after administration of ibotenate and the compound of the invention: (1) cleaved caspase-3, an apoptosis marker; (2) isolectin, a microglial activation marker; (3) glial fibrillary acidic protein (GFAP), a marker of astrogliosis.

[5] = deferred injection 8 h after ibotenate, sacrifice at 120 h
[6] = deferred injection 24 h after ibotenate, sacrifice at 120 h
[7] = deferred injection 48 h after ibotenate, sacrifice at 120 h

## Cl.O=C1NN2c3ccc(Cl)cc3C3CCN4CCCC1C4C32 (single isomer, unassigned; (+)) [Example 1, (+) (2RS,7SR),(3RS,16RS)-10-Chloro-15-oxo-2,7,14,15-tetrahydro-14-aza-20,21-dinoreburnameninium chloride]
[1]
  reduction of the area occupied by the astrocytes (GFAP) in the striatum: 13%
[2]
  Reduction in cell death, % reduction: 70%
[3]
  cell survival (number of surviving neurons, tyrosine hydroxylase labelling): significantly increase
  rate of tritiated dopamine uptake: significantly increase
[4]; [5]
  Reparatory effect: reduction in the size of lesions relative to the controls, cortex: 57%
  Reparatory effect: reduction in the size of lesions relative to the controls, white matter: 59%
[4]; [6]
  Reparatory effect: reduction in the size of lesions relative to the controls, cortex: 39%
  Reparatory effect: reduction in the size of lesions relative to the controls, white matter: 61%
[4]; [7]
  Reparatory effect: reduction in the size of lesions relative to the controls, cortex: 10%
  Reparatory effect: reduction in the size of lesions relative to the controls, white matter: 26%
[4]; sacrifice at 8 h
  Reduction in the intensity of markers relative to the controls, GFAP (astrogliosis): 24%
  Reduction in the intensity of markers relative to the controls, Isolectin (microglial activation): 39%
  Reduction in the size of lesions relative to the controls, cortex: 39%
  Reduction in the size of lesions relative to the controls, white matter: 66%
[4]; sacrifice at 24 h
  Reduction in the intensity of markers relative to the controls, Cleaved caspase-3 (apoptosis): 66%
  Reduction in the intensity of markers relative to the controls, Isolectin (microglial activation): 39%
  Reduction in the size of lesions relative to the controls, cortex: 40%
  Reduction in the size of lesions relative to the controls, white matter: 61%
[4]; sacrifice at 48 h
  Reduction in the intensity of markers relative to the controls, Cleaved caspase-3 (apoptosis): 71%
  Reduction in the intensity of markers relative to the controls, GFAP (astrogliosis): 25%
  Reduction in the intensity of markers relative to the controls, Isolectin (microglial activation): 35%
  Reduction in the size of lesions relative to the controls, cortex: 44%
  Reduction in the size of lesions relative to the controls, white matter: 52%
[4]; sacrifice at 72 h
  Reduction in the intensity of markers relative to the controls, GFAP (astrogliosis): 31%
  Reduction in the intensity of markers relative to the controls, Isolectin (microglial activation): 35%
  Reduction in the size of lesions relative to the controls, cortex: 52%
  Reduction in the size of lesions relative to the controls, white matter: 56%
[4]; sacrifice at 120 h
  Reduction in the intensity of markers relative to the controls, GFAP (astrogliosis): 39%
  Reduction in the intensity of markers relative to the controls, Isolectin (microglial activation): 41%
  Reduction in the size of lesions relative to the controls, cortex: 46%
  Reduction in the size of lesions relative to the controls, white matter: 62%
